Source: ChEMBL document CHEMBL5113553, “Synthesis and Bioactivity of Thiocarboxylic A and Derivatives” (J Nat Prod, 2022)
Converted amounts (≈) assume the structure as drawn.

Experiments:
Escherichia coli [1] = assay: Antibacterial activity against Escherichia coli harboring delta tolC mutant assessed as inhibition of bacterial growth incubated for 24 hrs; format: functional, organism-based
Candida albicans = assay: Antifungal activity against Candida albicans assessed as fungal growth inhibition; format: functional
Escherichia coli [2] = assay: Antibacterial activity against wild type Escherichia coli incubated for 24 hrs; format: functional
Staphylococcus aureus = assay: Antibacterial activity against wild type Staphylococcus aureus USA300 incubated for 24 hrs; format: functional
L929 = assay: Cytotoxicity against mouse L929 cells upto 100 uM measured after 72 hrs by alamar blue assay; format: toxicity, cell-based; settings: l929, 72 h

Row | MIC (Escherichia coli [2]) | MIC (Staphylococcus aureus) | Structure (SMILES) | IC50 (Escherichia coli [1]) [µM] | MIC (Candida albicans) [µg/mL] | Activity (L929)
1 | > 100 µM | > 100 µM | CCCC/C=C/C=C/[C@@]1(C)OC(c2ccsc2C)=C(C(=O)OC)C1=O |  |  | Non-Toxic
2 | > 100 µM | > 100 µM | CC/C=C/C=C/[C@@]1(C)OC(c2ccc(C)s2)=C(C(=O)OC)C1=O |  |  | Non-Toxic
3 | > 100 µM | > 100 µM | CC/C=C/C=C/[C@@]1(C)OC(c2sccc2C)=C(C(=O)OC)C1=O |  |  | Non-Toxic

Row | Structure (SMILES) | MIC (Escherichia coli [2]) | MIC (Staphylococcus aureus) | IC50 (Escherichia coli [1]) [µM] | MIC (Candida albicans) [µg/mL] | Activity (L929)
4 | CC/C=C/C=C/[C@@]1(C)OC(c2ccsc2C)=C(C(=O)OC)C1=O | 1.7 µg/mL | 1.7 µg/mL | 44 | 1.7 (≈ 5.11 µM) | Non-Toxic
